Key:
[1] = biological target: T1, CDK2/Cyclin E2 (Homo sapiens, UniProt P24941); assay: CDK2/CyclinE2 Enzymatic Activity Assay (TR-FRET); format: biochemical; conditions: ATP 1 mM final, read-out: CDK2_E1 IC50
T1 construct: Recombinant protein complex CDK2/Cyclin E2, expressed from insect cell, was purchased from ProQinase
Protocol: CDK2/CyclinE2 Enzymatic Activity Assay
The inhibitory activity of compounds was evaluated in vitro using TR-FRET assay with white 384-well low volume microplate (Greiner Bio-One). CDK2/Cyclin E2 catalyzed phosphorylation of peptide in the presence and absence of compounds was measured and used in IC50 determination. Recombinant protein complex CDK2/Cyclin E2, expressed from insect cell, was purchased from ProQinase. Testing compounds were dissolved in DMSO at 1 mM and tested in 9-dose IC50 mode. The reaction mixture was prepared by mixing CDK2/CyclinE2 (1 nM final), ULight-4E-BP1 (50 nM final, Perkinelmer, TRF0128-D), and ATP (1 mM final) in assay buffer (20 mM of HEPES pH 7.4, 1 mM of EGTA, 0.05% BSA, 0.005% Tween 20, and 1 mM TCEP). The compound of interest in DMSO was added to each well in 3-fold serial dilution by dispenser (TECAN D300E) to make a 9.9 μL of reaction mixture. After 20 minutes preincubation at room temperature, 0.1 μL MgCl2 (10 mM final) was added to initiate the reaction. Following a 45 minute incubation at 37° C., the reaction was stopped by addition of 2 μL of quenching buffer consisting of Lance detection buffer (Perkinelmer CR97-100C), LANCE Ultra Europium-anti-P-4E-BP1 (Perkinelmer, TRF0216-D), EDTA, and incubated at room temperature for additional 60 minutes in the dark. The reaction signal was measured by Envision multimode plate reader (PerkinElmer, 2102-0010). IC50 values were determined by fitting the data to the standard 4 parameters with Hill Slope using GraphPad Prism software.

[2] = tested on: OVCAR3 p-RB; assay: pRB ICW Assay in OVCAR3 Cells; format: cell-based; conditions: Homo sapiens, OVCAR-3, incubated with compound for 2 hours
Protocol: pRB ICW Assay in OVCAR3 Cells
OVCAR3 cells were maintained in RPMI (Corning, Catalog #: 10-040-CV) supplemented with 10% v/v FBS (Gibco, Catalog #: 26140-079), 1% v/v Penicillin Streptomycin (Gibco, Catalog #15140-122.) OVCAR3 cells grown at log phase were trypsinized, counted, and resuspended in fresh medium to reach a final density of 6.7e4 cells/mL and 75 μL of culture were dispensed into a 384-well plate (Falcon, cat #353962) using a Multidrop Combi dispenser (Thermo Scientific). The next day, compounds were dispensed as a 9-point, ½ log serial dilution using a Tecan digital dispenser (D300e), and cells were incubated with compound for 2 hours in a humidified incubator at 37° C. A reference compound at a final concentration of 10 μM was used as a control for maximum inhibition. Each compound was tested in duplicate for each experiment. At the end of the incubation, […] (Electron Microscopy, cat #15710) was slowly added to each well and the plate was incubated at room temperature (RT) for 30 minutes to fix cells. Cells were then permeabilized by incubating with 50 μL/well of wash buffer (1×PBS with 0.1% Triton X-100) 5×5 minutes, followed by 1 hour blocking with 30 μL/well of Odyssey blocking buffer (Li-COR, cat #927-40000), at RT. Anti-phosphor RB antibody (Cell signaling 8516S) was diluted 1:1000 in Odyssey blocking buffer and 20 μL was added to all wells and incubated overnight in 4° C. with gently rocking. The next day, cells were washed 5×5 min with 50 μL/well of wash buffer, followed with 1 hour incubation with secondary antibody and DRAQ5 diluted in Odyssey blocking buffer (1:500 dilution for secondary antibody and 1:2000 dilution for DRAQ5), 5×5 min washes, and one last wash with water. Plates were dried in 37° C. oven for 5 minutes and scanned using Li-COR Odyssey CLx imaging system to acquire intensities at 700 and 800 nm channels.

Structure (SMILES) | IC50 [1] [µM] | IC50 [2] [µM]
CS(=O)(=O)N1CCC(Nc2ncc(C(F)(F)F)c(-c3cc(C#N)c(C(O)C(F)(F)F)s3)n2)CC1 (stereo not drawn) [Example 122, 5-(2-((1-(methylsulfonyl)piperidin-4-yl)amino)-5-(trifluoromethyl)pyrimidin-4-yl)-2-(2,2,2-trifluoro-1-hydroxyethyl)thiophene-3-carbonitrile] | ≤ 0.1 | ≤ 0.1
Cn1cnc(S(=O)(=O)N2CC[C@@H](Nc3ncc(C(F)(F)F)c(-c4cc(C#N)c(CC(C)(C)O)s4)n3)[C@H](F)C2)c1 [Example 127, 5-(2-(((3R,4R)-3-fluoro-1-((1-methyl-1H-imidazol-4-yl)sulfonyl)piperidin-4-yl)amino)-5-(trifluoromethyl)pyrimidin-4-yl)-2-(2-hydroxy-2-methylpropyl)thiophene-3-carbonitrile] | ≤ 0.1 | ≤ 0.1
Cn1cc(S(=O)(=O)N2CC[C@@H](Nc3ncc(C(F)(F)F)c(-c4cc(C(N)=O)ns4)n3)[C@H](F)C2)cn1 [Example 128, 5-(2-(((3R,4R)-3-fluoro-1-((1-methyl-1H-pyrazol-4-yl)sulfonyl)piperidin-4-yl)amino)-5-(trifluoromethyl)pyrimidin-4-yl)isothiazole-3-carboxamide] | ≤ 0.1 | ≤ 0.1
Cn1cc(S(=O)(=O)N2CC[C@H](Nc3ncc(C(F)(F)F)c(-c4cc(C(N)=O)ns4)n3)[C@H](F)C2)cn1 [Example 129, 5-(2-(((3R,4S)-3-fluoro-1-((1-methyl-1H-pyrazol-4-yl)sulfonyl)piperidin-4-yl)amino)-5-(trifluoromethyl)pyrimidin-4-yl)isothiazole-3-carboxamide] | ≤ 0.1 | ≤ 0.1
CC(C)(O)Cc1sc(-c2nc(NC3CCN(S(C)(=O)=O)CC3)ncc2C(F)(F)F)cc1C(N)=O [Example 130, 2-(2-hydroxy-2-methylpropyl)-5-(2-((1-(methylsulfonyl)piperidin-4-yl)amino)-5-(trifluoromethyl)pyrimidin-4-yl)thiophene-3-carboxamide] | ≤ 0.1 | 0.1 to 0.5
Cn1cnc(S(=O)(=O)N2CC[C@H](Nc3ncc(C(F)(F)F)c(-c4ncc(CC(C)(C)O)s4)n3)[C@H](F)C2)c1 [Example 136, 1-(2-(2-(((3R,4S)-3-fluoro-1-((1-methyl-1H-imidazol-4-yl)sulfonyl)piperidin-4-yl)amino)-5-(trifluoromethyl)pyrimidin-4-yl)thiazol-5-yl)-2-methylpropan-2-ol] | ≤ 0.1 | ≤ 0.1
C[C@@H]1CN(S(=O)(=O)c2cn(C)cn2)CC[C@@H]1Nc1ncc(C(F)(F)F)c(-c2ncc(C(O)C(F)F)s2)n1 (stereo partly drawn) [Example 139, 2,2-difluoro-1-(2-(2-(((3R,4S)-3-methyl-1-((1-methyl-1H-imidazol-4-yl)sulfonyl)piperidin-4-yl)amino)-5-(trifluoromethyl)pyrimidin-4-yl)thiazol-5-yl)ethan-1-ol] | ≤ 0.1 | ≤ 0.1

The next lines start with the values.

IC50 [1] [µM] | IC50 [2] [µM] | Structure (SMILES)
≤ 0.1 | ≤ 0.1 | C[C@@H]1CN(S(=O)(=O)c2c[nH]cn2)CC[C@@H]1Nc1ncc(C(F)(F)F)c(-c2cc(C#N)c(C(C)(C)O)s2)n1 [Example 120, 5-(2-(((3R,4S)-1-((1H-imidazol-4-yl)sulfonyl)-3-methylpiperidin-4-yl)amino)-5-(trifluoromethyl)pyrimidin-4-yl)-2-(2-hydroxypropan-2-yl)thiophene-3-carbonitrile]
≤ 0.1 | 0.1 to 0.5 | C[C@@H]1CN(S(=O)(=O)c2cn(C)cn2)CC[C@@H]1Nc1ncc(C(F)(F)F)c(-c2cc(C#N)c(C(C)(C)O)s2)n1 [Example 121, 2-(2-hydroxypropan-2-yl)-5-(2-(((3R,4S)-3-methyl-1-((1-methyl-1H-imidazol-4-yl)sulfonyl)piperidin-4-yl)amino)-5-(trifluoromethyl)pyrimidin-4-yl)thiophene-3-carbonitrile]
≤ 0.1 | ≤ 0.1 | C[C@@H]1CN(S(=O)(=O)c2cnn(C)c2)CC[C@@H]1Nc1ncc(C(F)(F)F)c(-c2cc(C#N)c(C(O)C(F)(F)F)s2)n1 (stereo partly drawn) [Example 123, 5-(2-(((3R,4S)-3-methyl-1-((1-methyl-1H-pyrazol-4-yl)sulfonyl)piperidin-4-yl)amino)-5-(trifluoromethyl)pyrimidin-4-yl)-2-(2,2,2-trifluoro-1-hydroxyethyl)thiophene-3-carbonitrile]
≤ 0.1 | ≤ 0.1 | CC(C)(O)Cc1sc(-c2nc(NC3CCN(S(C)(=O)=O)CC3)ncc2C(F)(F)F)cc1C#N [Example 124, 2-(2-hydroxy-2-methylpropyl)-5-(2-((1-(methylsulfonyl)piperidin-4-yl)amino)-5-(trifluoromethyl)pyrimidin-4-yl)thiophene-3-carbonitrile]
≤ 0.1 | 0.1 to 0.5 | Cn1cc(S(=O)(=O)N2CCC(Nc3ncc(C(F)(F)F)c(-c4cc(C#N)c(CC(C)(C)O)s4)n3)CC2)cn1 [Example 125, 2-(2-hydroxy-2-methylpropyl)-5-(2-((1-((1-methyl-1H-pyrazol-4-yl)sulfonyl)piperidin-4-yl)amino)-5-(trifluoromethyl)pyrimidin-4-yl)thiophene-3-carbonitrile]
≤ 0.1 | ≤ 0.1 | Cn1cc(S(=O)(=O)N2CC[C@@H](Nc3ncc(C(F)(F)F)c(-c4cc(C#N)c(CC(C)(C)O)s4)n3)[C@H](F)C2)cn1 [Example 126, 5-(2-(((3R,4R)-3-fluoro-1-((1-methyl-1H-pyrazol-4-yl)sulfonyl)piperidin-4-yl)amino)-5-(trifluoromethyl)pyrimidin-4-yl)-2-(2-hydroxy-2-methylpropyl)thiophene-3-carbonitrile]
≤ 0.1 | ≤ 0.1 | C[C@@H]1CN(S(=O)(=O)c2cn(C)cn2)CC[C@@H]1Nc1ncc(C(F)(F)F)c(-c2ncc(C(C)(C)O)s2)n1 [Example 133, 2-(2-(2-(((3R,4S)-3-methyl-1-((1-methyl-1H-imidazol-4-yl)sulfonyl)piperidin-4-yl)amino)-5-(trifluoromethyl)pyrimidin-4-yl)thiazol-5-yl)propan-2-ol]
≤ 0.1 | ≤ 0.1 | CS(=O)(=O)N1CCC(Nc2ncc(C(F)(F)F)c(-c3ncc(C(O)C(F)F)s3)n2)CC1 (stereo not drawn) [Example 134, 2,2-difluoro-1-(2-(2-((1-(methylsulfonyl)piperidin-4-yl)amino)-5-(trifluoromethyl)pyrimidin-4-yl)thiazol-5-yl)ethan-1-ol]
≤ 0.1 | 0.1 to 0.5 | CC(C)(O)Cc1cnc(-c2nc(N[C@@H]3CCN(S(C)(=O)=O)C[C@H]3F)ncc2C(F)(F)F)s1 [Example 135, 1-(2-(2-(((3R,4R)-3-fluoro-1-(methylsulfonyl)piperidin-4-yl)amino)-5-(trifluoromethyl)pyrimidin-4-yl)thiazol-5-yl)-2-methylpropan-2-ol]
≤ 0.1 | ≤ 0.1 | CC(C)(O)Cc1cnc(-c2nc(N[C@H]3CCN(S(=O)(=O)c4cn[nH]c4)C[C@H]3F)ncc2C(F)(F)F)s1 [Example 137, 1-(2-(2-(((3R,4S)-1-((1H-pyrazol-4-yl)sulfonyl)-3-fluoropiperidin-4-yl)amino)-5-(trifluoromethyl)pyrimidin-4-yl)thiazol-5-yl)-2-methylpropan-2-ol]
≤ 0.1 | ≤ 0.1 | C[C@@H]1CN(S(=O)(=O)c2cnn(C)c2)CC[C@@H]1Nc1ncc(C(F)(F)F)c(-c2ncc(C(O)C(F)F)s2)n1 (stereo partly drawn) [Example 138, 2,2-difluoro-1-(2-(2-(((3R,4S)-3-methyl-1-((1-methyl-1H-pyrazol-4-yl)sulfonyl)piperidin-4-yl)amino)-5-(trifluoromethyl)pyrimidin-4-yl)thiazol-5-yl)ethan-1-ol]

From patent US20240150340A1, “CDK Inhibitors And Their Use As Pharmaceuticals” (Prelude Therapeutics Incorporated, priority 2022, published 2024)
